From patent publication US7179823B1, “5-membered n-heterocyclic compounds with hypoglycemic and hypolipidemic activity” (Takeda Pharmaceutical Company Limited, priority 1999, dated 2007) come the findings set out here.

The melting point is the temperature of the solid-liquid transition. Turning to `O=C(O)CCc1cn(Cc2ccc(OCc3ccc(-c4ccccc4)cn3)cc2)nc1-c1ccccc1` [Example 302, 3-[3-phenyl-1-[4-(5-phenyl-2-pyridylmethoxy)benzyl]-1H-pyrazol-4-yl]propionic acid], the melting point lay in the range of 149 to 150 °C. The figure for `CCOC(=O)CCc1cn(Cc2cc(OCc3nc(-c4ccccc4)oc3C)no2)nc1OCC` [Example 218, ethyl 3-[3-ethoxy-1-[3-(5-methyl-2-phenyl-4-oxazolylmethoxy)-5-isoxazolylmethyl]-1H-pyrazol-4-yl]propionate] is 82 to 83 °C; for `Cc1oc(-c2ccccc2)nc1COc1ccc(Cn2cc(CC(=O)O)c(-c3ccccc3)n2)cn1` [Example 308, [1-[6-(5-methyl-2-phenyl-4-oxazolylmethoxy)-3-pyridylmethyl]-3-phenyl-1H-pyrazol-4-yl]acetic acid] it is 144 to 145 °C. The same measure for `Cc1oc(-c2ccccc2)nc1COc1nn(Cc2ccc(Oc3ccccc3)cc2)cc1C(=O)O` [Example 330, 3-(5-methyl-2-phenyl-4-oxazolylmethoxy)-1-(4-phenoxybenzyl)-1H-pyrazole-4-carboxylic acid]: 222 to 223 °C.

`CCOc1nn(Cc2cccc(OCCn3ncc4ccccc4c3=O)c2)cc1CCC(=O)O` [Example 221, 3-[3-ethoxy-1-[3-[2-[1-oxophthalazin-2(1H)-yl]ethoxy]benzyl]-1H-pyrazol-4-yl]propionic acid] showed a melting point of 146 to 147 °C.

Take `CCOC(=O)CCc1cn(Cc2ccc(OCc3cn4c(Cl)cccc4n3)cc2)nc1OCC` [Example 224, ethyl 3-[1-[4-(5-chloroimidazo[1,2-a]pyridin-2-ylmethoxy)benzyl]-3-ethoxy-1H-pyrazol-4-yl]propionate]: the melting point is 69 to 70 °C. The same measure for `Cc1ncccc1COc1ccc2cc(Cn3cc(CCC(=O)O)c(-c4ccccc4)c3)ccc2c1` [Example 60, 3-[1-[6-(2-methyl-3-pyridylmethoxy)-2-naphthylmethyl]-4-phenyl-3-pyrrolyl]propionic acid]: 163 to 164 °C; for `Cc1sc(-c2ccccc2)nc1COc1ccc(Cn2cc(CCC(=O)O)c(-c3ccccc3)c2)cc1` [Example 28, 3-[1-[4-(5-methyl-2-phenyl-4-thiazolylmethoxy)benzyl]-4-phenyl-3-pyrrolyl]propionic acid]: 157 to 158 °C; for `Cc1oc(-c2ccccc2)nc1COc1ccc(Cn2cc(CCCC(=O)O)c(-c3ccccc3)n2)cc1` [Example 96, 4-[1-[4-(5-methyl-2-phenyl-4-oxazolylmethoxy)benzyl]-3-phenyl-1H-pyrazole-4-yl]butanoic acid]: 118 to 119 °C. For the compound `O=C(O)CCc1cn(Cc2ccc3cc(OCc4ccccc4F)ccc3c2)cc1-c1ccccc1` [Example 56, 3-[1-[6-(2-fluorobenzyloxy)-2-naphthylmethyl]-4-phenyl-3-pyrrolyl]propionic acid], the melting point was 143 to 144 °C. The same measure for `O=C(O)CCc1cn(Cc2ccc(OCc3csc(-c4ccccc4)n3)cc2)nc1-c1ccccc1` [Example 304, 3-[3-phenyl-1-[4-(2-phenyl-4-thiazolylmethoxy)benzyl]-1H-pyrazol-4-yl]propionic acid]: 132 to 133 °C; for `Cc1oc(-c2ccccc2)nc1COc1ccc(Cn2cc(CCC(=O)O)c(C(C)C)n2)cc1` [Example 108, 3-[3-isopropyl-1-[4-(5-methyl-2-phenyl-4-oxazolylmethoxy)benzyl]-1H-pyrazol-4-yl]propionic acid]: 97 to 98 °C; for `O=C(O)CCc1cn(Cc2cc(OCc3ccccc3)cc(OCc3csc(-c4cnccn4)n3)c2)cc1-c1ccccc1` [Example 75, 3-[1-[3-benzyloxy-5-[2-(2-pyrazinyl)-4-thiazolylmethoxy]benzyl]-4-phenyl-3-pyrrolyl]propionic acid]: 109 to 110 °C. With `CCOC(=O)c1cn(Cc2ccc(OCc3ccccc3)cc2)nc1-c1ccccc1` [Example 76, ethyl 1-(4-benzyloxybenzyl)-3-phenyl-1H-pyrazole-4-carboxylate], the melting point lay in the range of 102 to 103 °C.

In turn, `O=C(O)CCc1cn(Cc2ccc(OCc3cccs3)cc2)cc1-c1ccccc1` [Example 20, 3-[4-phenyl-1-[4-(2-thienylmethoxy)benzyl]-3-pyrrolyl]propionic acid] displayed a melting point of 127 to 128 °C. The same measure for `Cc1oc(-c2ccccc2)nc1COc1ccc(Cn2cc(CCC(=O)O)c(-c3ccccc3)c2)cn1` [Example 268, 3-[1-[6-(5-methyl-2-phenyl-4-oxazolylmethoxy)-3-pyridylmethyl]-4-phenyl-3-pyrrolyl]propionic acid]: 123 to 124 °C; for `O=C(O)CCc1cn(Cc2ccc(OCc3ccccn3)cc2)cc1-c1ccccc1` [Example 11, 3-[4-phenyl-1-[4-(2-pyridylmethoxy)benzyl]-3-pyrrolyl]propionic acid]: 109 to 110 °C. The same measure for `Cc1oc(-c2ccccc2)nc1COc1ccc(Cn2cc(C(=O)O)c(C(C)C)n2)cc1` [Example 106, 3-isopropyl-1-[4-(5-methyl-2-phenyl-4-oxazolylmethoxy)benzyl]-1H-pyrazol-4-carboxylic acid]: 194 to 195 °C; for `CCOc1cc(Cn2cc(CCC(=O)O)c(-c3ccccc3)c2)cc(OCc2nc(-c3ccccc3)oc2C)c1` [Example 272, 3-[1-[3-ethoxy-5-(5-methyl-2-phenyl-4-oxazolylmethoxy)benzyl]-4-phenyl-3-pyrrolyl]propionic acid]: 126 to 127 °C; for `Cc1oc(-c2ccccc2)nc1COc1nn(Cc2ccc(Oc3ccccc3)cc2)cc1CCC(=O)O` [Example 335, 3-[3-(5-methyl-2-phenyl-4-oxazolylmethoxy)-1-(4-phenoxybenzyl)-1H-pyrazol-4-yl]propionic acid]: 120 to 121 °C. The same measure for `Cc1ncccc1COc1ccc(Cn2cc(CCC(=O)O)c(-c3ccccc3)c2)cc1` [Example 26, 3-[1-[4-(2-methyl-3-pyridylmethoxy)benzyl]-4-phenyl-3-pyrrolyl]propionic acid]: 158 to 159 °C. With `CCOc1cc(Cn2cc(CCC(=O)O)c(-c3ccccc3)c2)cc(OCc2csc(-c3ccccc3)n2)c1` [Example 274, 3-[1-[3-ethoxy-5-(2-phenyl-4-thiazolylmethoxy)benzyl]-4-phenyl-3-pyrrolyl]propionic acid], the melting point fell in the range of 109 to 110 °C. The figure for `CCOC(=O)CCc1cn(Cc2cccnc2OCc2csc(-c3ccccc3)n2)nc1-c1ccccc1` [Example 299, ethyl 3-[3-phenyl-1-[2-(2-phenyl-4-thiazolylmethoxy)-3-pyridylmethyl]-1H-pyrazol-4-yl]propionate] is 88 to 89 °C. The same measure for `Cc1oc(-c2ccccc2)nc1CCOc1ccc(Cn2cc(CCC(=O)O)c(-c3ccccc3)n2)cc1` [Example 114, 3-[1-[4-[2-(5-methyl-2-phenyl-4-oxazolyl)ethoxy]benzyl]-3-phenyl-1H-pyrazol-4-yl]propionic acid]: 142 to 143 °C; for `CCOc1nn(Cc2ccc(OCc3cccc(-c4ccccc4)n3)cc2)cc1CCC(=O)O` [Example 246, 3-[3-ethoxy-1-[4-(6-phenyl-2-pyridylmethoxy)benzyl]-1H-pyrazol-4-yl]propionic acid]: 95 to 96 °C. The same measure for `CCOC(=O)c1cn(Cc2ccc(Oc3ccccc3)cc2)nc1OCc1ccc(OCc2nc(-c3ccccc3)oc2C)c(OC)c1` [Example 324, ethyl 3-[3-methoxy-4-(5-methyl-2-phenyl-4-oxazolylmethoxy)benzyloxy]-1-(4-phenoxybenzyl)-1H-pyrazole-4-carboxylate]: 127 to 128 °C. For `COc1cc(Cn2cc(CCC(=O)O)c(-c3ccccc3)c2)cc(OCc2csc(-c3cnccn3)n2)c1` [Example 71, 3-[1-[3-methoxy-5-[2-(2-pyrazinyl)-4-thiazolylmethoxy]benzyl]-4-phenyl-3-pyrrolyl]propionic acid], the melting point is 111 to 112 °C. The figure for `CCOc1nn(Cc2ccc(OCc3cn4c(Cl)cccc4n3)cc2)cc1CCC(=O)O` [Example 225, 3-[1-[4-(5-chloroimidazo[1,2-a]pyridin-2-ylmethoxy)benzyl]-3-ethoxy-1H-pyrazol-4-yl]propionic acid] is 153 to 154 °C. The figure for `Cc1oc(-c2ccccc2)nc1COc1ccc(CCn2cc(CCC(=O)O)c(-c3ccccc3)n2)cc1` [Example 116, 3-[1-[2-[4-(5-methyl-2-phenyl-4-oxazolylmethoxy)phenyl]ethyl]-3-phenyl-1H-pyrazol-4-yl]propionic acid] is 85 to 86 °C.

For the compound `O=C(O)CCc1cn(Cc2ccc(OCc3cccnc3)cc2)nc1-c1ccccc1` [Example 91, 3-[3-phenyl-1-[4-(3-pyridylmethoxy)benzyl]-1H-pyrazol-4-yl]propionic acid], the melting point was in the range of 112 to 113 °C. In turn, `O=C(O)CCc1cn(Cc2ccc(OCc3csc(-c4cccnc4)n3)cc2)cc1-c1ccccc1` [Example 46, 3-[4-phenyl-1-[4-[2-(3-pyridyl)-4-thiazolylmethoxy]benzyl]-3-pyrrolyl]propionic acid] came in with a melting point of 118 to 119 °C. Regarding `Cc1oc(-c2ccccc2)nc1COc1ccc(Cn2cc(CCC(=O)O)c(-c3ccccn3)c2)cc1` [Example 64, 3-[1-[4-(5-methyl-2-phenyl-4-oxazolylmethoxy)benzyl]-4-(2-pyridyl)-3-pyrrolyl]propionic acid], the melting point fell in the range of 155 to 156 °C. The figure for `CCOc1nn(Cc2cc(OCc3ccc4ccccc4n3)no2)cc1CCC(=O)O` [Example 242, 3-[3-ethoxy-1-[3-(2-quinolylmethoxy)-5-isoxazolylmethyl]-1H-pyrazol-4-yl]propionic acid] is 123 to 124 °C; for `Cc1oc(-c2ccco2)nc1COc1ccc(COc2nn(Cc3ccc(OCc4nc(-c5ccco5)oc4C)cc3)cc2C(=O)O)cc1` [Example 326, 1-[4-[2-(2-furyl)-5-methyl-4-oxazolylmethoxy]benzyl]-3-[4-[2-(2-furyl)-5-methyl-4-oxazolylmethoxy]benzyloxy]-1H-pyrazole-4-carboxylic acid] it is 144 to 145 °C.
